Test results as given in PMC9412994 (Pharmaceutics, 2022).
Like-named read-outs stand apart in the source and are kept apart here. Values belong to the compound of their own block, whether it stands above or below them.

Assays:
[1] = cited from earlier work
[2] = tested on: bovine brain capillary endothelial cells; conditions: bovine brain capillary endothelial cells on filter inserts, co-culture with glial cells; cited from earlier work
rodent P-gp = tested on: rodent P-gp; set-up: method as in PMID 32856111; conditions: LLC-PK1-Mdr1a cells; cited from earlier work
human P-gp [3] = target: T1, human P-gp (Homo sapiens, UniProt P08183); conditions: MDCK-MDR1 cells, same origin; cited from earlier work
T1 construct: host or cells: MDCKII-MDR1 (stably transfected canine kidney cells)
T1 sequence (P08183 whole entry): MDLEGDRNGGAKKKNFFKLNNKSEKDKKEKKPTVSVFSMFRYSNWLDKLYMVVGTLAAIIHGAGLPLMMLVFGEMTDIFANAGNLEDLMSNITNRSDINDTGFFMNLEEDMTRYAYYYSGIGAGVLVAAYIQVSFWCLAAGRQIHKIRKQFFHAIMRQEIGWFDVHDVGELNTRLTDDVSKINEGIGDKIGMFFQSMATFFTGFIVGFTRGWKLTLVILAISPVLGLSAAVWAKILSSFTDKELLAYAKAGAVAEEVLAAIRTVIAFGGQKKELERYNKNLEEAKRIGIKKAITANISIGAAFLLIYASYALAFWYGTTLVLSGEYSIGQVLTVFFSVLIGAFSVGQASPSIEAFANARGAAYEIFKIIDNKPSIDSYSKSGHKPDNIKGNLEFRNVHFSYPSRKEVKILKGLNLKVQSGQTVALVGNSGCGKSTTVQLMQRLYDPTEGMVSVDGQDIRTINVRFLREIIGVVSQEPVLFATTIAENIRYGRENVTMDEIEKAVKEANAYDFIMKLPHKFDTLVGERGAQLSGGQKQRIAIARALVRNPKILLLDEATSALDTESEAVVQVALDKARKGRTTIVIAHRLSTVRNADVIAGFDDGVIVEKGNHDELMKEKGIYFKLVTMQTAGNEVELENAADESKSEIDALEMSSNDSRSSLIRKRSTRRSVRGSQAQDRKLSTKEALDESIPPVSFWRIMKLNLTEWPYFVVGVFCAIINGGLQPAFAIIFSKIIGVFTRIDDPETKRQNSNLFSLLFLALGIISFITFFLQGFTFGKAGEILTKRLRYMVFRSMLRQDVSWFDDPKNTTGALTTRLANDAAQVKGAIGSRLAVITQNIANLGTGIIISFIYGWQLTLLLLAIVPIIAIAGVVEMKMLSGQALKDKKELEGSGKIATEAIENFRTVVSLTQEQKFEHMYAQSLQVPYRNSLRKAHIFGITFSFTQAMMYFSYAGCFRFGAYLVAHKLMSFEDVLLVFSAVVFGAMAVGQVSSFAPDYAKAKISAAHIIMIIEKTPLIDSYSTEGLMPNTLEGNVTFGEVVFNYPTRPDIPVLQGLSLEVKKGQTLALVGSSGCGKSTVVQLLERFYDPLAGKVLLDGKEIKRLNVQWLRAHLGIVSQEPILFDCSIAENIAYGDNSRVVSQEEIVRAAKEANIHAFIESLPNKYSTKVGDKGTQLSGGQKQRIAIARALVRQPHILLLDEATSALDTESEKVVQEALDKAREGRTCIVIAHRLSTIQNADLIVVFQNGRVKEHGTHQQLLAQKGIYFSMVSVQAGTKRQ

[4] = rats, cited from earlier work
P-gp [5] = conditions: cited from earlier work
[6] = Arterial input function and plasma metabolism of the radiotracer in rats; type: in vivo; conditions: rat
Procedure: Blood samples (50 µL) were collected at selected times from the femoral artery to establish total radioactivity kinetics in arterial plasma. Plasma was separated from whole blood by centrifugation (5 min, 2054 g, 4 °C), and 20 µL of plasma and whole blood were counted using a PET cross-calibrated gamma well counter (WIZARD2, PerkinElmer, Villebon-sur-Yvette, France) to obtain the whole-blood and plasma activity curves. All data were corrected for radioactive decay from the injection time. For the larger blood samples, 80 µL plasma was deproteinized with acetonitrile. The supernatant was injected in high-performance liquid chromatography, equipped with an Atlantis® T3 5 μm 10 × 250 mm column (Waters, Guyancourt, France) and an Atlantis® T3 5 μm 19 × 10 mm pre-column (Waters) with an LB-514 radioactivity flow detector (Berthold, France, MX Z100 cell). The mobile phase was composed of water containing 0.1% (v/v) TFA (solvent A) and acetonitrile containing 0.1% (v/v) TFA (solvent B) delivered in a gradient elution mode at a flow rate of 5 mL min^−1: solvent B increased linearly from 20 to 30% from 0 to 9 min.
The method for [^11C]metoclopramide metabolism has been previously reported.

[7] = rat; 60 min post-injection; cited from earlier work
human P-gp [8] = target: T1, human P-gp; set-up: method as in PMID 34496661; conditions: cited from earlier work; for IC50: read-out: IC50 of TQD (P-gp inhibition)
[9] = set-up: method as in PMID 26585058, PMID 34496661; conditions: rat; 8 mg/kg tariquidar versus baseline; cited from earlier work
P-gp [10] = assay: Brain PET imaging in rats at baseline and after P-gp inhibition with TQD; type: in vivo; conditions: brain/plasma, with tariquidar; rat; presence of P-gp inhibition (TQD); newly calculated from published PET data of ref 21, 24
Procedure: (§1) PET acquisitions were performed using an Inveon microPET scanner (Siemens, TN, USA). […] Radiotracers were diluted in saline to obtain at least <10% ethanol in the ready-to-inject preparation.
(§2) TQD was used to inhibit P-gp function in rats. TQD was injected in a volume of 200–300 µL into the caudal vein 15 min before radiotracer injection.
(§3) Images were reconstructed with the Fourier rebinning algorithm and the three-dimensional ordered-subset expectation-maximization algorithm, including normalization, attenuation, scatter, and random corrections. Image analysis and quantification of radioactivity uptake were performed using PMOD software (version 3.9; PMOD Technologies, Zurich, Switzerland). A region of interest was drawn over the whole brain to generate time-activity curves (TACs) with time frame durations of 0.25 min, 2 × 0.5 min, 0.75 min, 4 × 1 min, 1.5 min, 4 × 2 min, 3 × 2.5 min, 3 × 3 min, and 3.5 min. Brain radioactivity was corrected for ^11C decay and expressed as the standardized uptake value (SUV) after correction by injected dose and animal weight.
(§4) The mean AUCplasma 20–30 was obtained in each condition to estimate Kp,brain = AUCbrain 20–30/AUCplasma 20–30, considering the mean metabolite-corrected arterial input function. Kp,brain were compared with a two-way ANOVA and a Tukey’s post hoc test using Graphpad Prism software (V8.0, San Diego, CA, USA).

[11] = as above; type: in vivo; conditions: rat
Procedure: as §1, §2, §3, §4

human P-gp [12] = target: T1, human P-gp; assay: Uptake assay in P-gp overexpressing MDCKII-MDR1 cells with radiolabeled substrate and tariquidar; type: cell-based; conditions: [11C]domperidone as substrate, 30 min incubation, CI95% 198-248 nM, read-out: IC50 of TQD (P-gp inhibition)
Procedure: Culture media and buffers were obtained from Fischer Scientific, France. Stably transfected MDCKII-MDR1 cells were obtained from Dr. Alfred Schinkel (National Cancer Institute, Amsterdam, The Netherlands) and were grown under a controlled atmosphere at 37 °C, 5% CO2. The culture medium was composed of DMEM Glutamax (Dulbecco’s Modified Eagle Medium, 4.5 g/Ldextrose, 1 mM pyruvate) supplemented with 10% fetal bovine serum and 1% antibiotics (penicillin and streptomycin 5000 U/mL).
Cells were seeded in 24-well plates (30,000 cells per well) in a 500 μL culture medium. Cells were grown to confluence (~2 days). […] Then, 400 μL of cell lysate was collected from each well (n = 4 wells per condition) and gamma counted using a Cobra Quantum (Perkin-Elmer, Villebon-sur-Yvette, France).
Counting values obtained in each well were normalized using Equation (1):(1) I%=R−mRzero/mRmax×100 where I% is the extent of inhibition (I%) between 0 and 100%, R is the radioactivity in the 4 tested wells, mRzero is the mean of the 4 wells without TQD, and mRmax is the difference of means between the 4 wells containing the highest concentration of TQD (800 nM) and the 4 wells without TQD. […]

SMILES: CCN(CC)CCNC(=O)c1cc(Cl)c(N)cc1OC [Metoclopramide]
- Neurological side effects: Frequent [1]: extrapyramidal signs, parkinsonian syndrome, akathisia
- Neurological side effects: Not Frequent [1]: dystonia, dyskinesia, altered consciousness
- Neurological side effects: Rare [1]: convulsions
- Neurological side effects: Unspecified frequency [1]: late dyskinesia, neuroleptic malignant syndrome
- Neurological side effects: Very Frequent [1]: sleepiness
- Passage across in vitro BBB model compared with passage across the filter (no BBB) [2]: 100%
- Efflux ratio (rodent P-gp): 1.6
- Efflux ratio (human P-gp [3]): 1.4
- Kp,uu,brain ([4]; another study): 0.235
- Tissue/plasma ratio (Kp,brain) ([4]; ex vivo): 1.72
- Kp,uu,brain [4]: 2.4
- Fold increase in Kp,brain in P-gp deficient mice compared with wild-type mice (P-gp [5]): 6.6 fold

- Parent (unmetabolized) fraction in plasma ([6]; 60 min post-injection): > 30%
- Effect of TQD on the fraction of parent (unmetabolized) radiotracer in plasma ([6]; with versus without TQD): did not impact
SMILES: O=c1[nH]c2cc(Cl)ccc2n1C1CCN(CCCn2c3ccccc3[nH][11c]2=O)CC1 [[^11C]domperidone]

- Kp (P-gp [10]): 47 ± 5.52
- Kp ([11]; brain/plasma, absence of P-gp inhibition, newly calculated from published PET data of ref 21, 24): 10.1 ± 2.01
- Baseline brain exposure (AUCbrain), fold higher compared with [11C]domperidone ([11]; baseline): 2.4 fold
SMILES: CCN(CC)CCNC(=O)c1cc(Cl)c(N)cc1O[11CH3] [[^11C]metoclopramide]
- Parent (unmetabolized) fraction in plasma [7]: could hardly be detected
- Uptake ratio (intracellular radioactivity after complete P-gp inhibition / without inhibition) (human P-gp [8]; MDCKII-MDR1 cells, 200 nM TQD): 1.4 ± 0.07
- Maximal increase in brain exposure [9]: 2.9 fold

- IC50 (human P-gp [12]): 221 nM
SMILES: COc1cc2c(cc1OC)CN(CCc1ccc(NC(=O)c3cc(OC)c(OC)cc3NC(=O)c3cnc4ccccc4c3)cc1)CC2 [tariquidar, Tariquidar]
- IC50 (human P-gp [8]; [11C]N-desmethyl-loperramide as substrate probe, same experimental conditions): 19 nM
- IC50 (human P-gp [8]; [11C]metoclopramide as substrate, MDCKII-MDR1 cells, CI95% 2-8 nM): 4 nM
- IC50 (human P-gp [8]; [11C]verapamil as substrate probe, same experimental conditions): 45 nM
